# ChEMBL document CHEMBL1201862, “PubChem BioAssay data set” (2004)
#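 Interpolation was linear, between the two tested concentrations surrounding the appropriate level; five concentrations were tested over 48 hours in 96-well plates. GI50 marks 50% less growth.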 Activity calls are given as the source filed them. Cut-off read from the data, not from the text of the source: active = GI50 up to about 1.1 µM and inactive = higher.
# Legend:
# Test in all cases: NCI anticancer screen, dose series, 48 h
# CAKI-1 = tested on: CAKI-1
# OVCAR-4 = tested on: OVCAR-4
# ACHN = tested on: ACHN
# MDA-N = tested on: MDA-N
# OVCAR-8 = tested on: OVCAR-8
# 786-0 = tested on: 786-0
# A498 = tested on: A498
# UACC-257 = tested on: UACC-257
# RXF 393 = tested on: RXF 393
# A549 = tested on: A549
# T47D = tested on: T47D
# NCI-H23 = tested on: NCI-H23
# U-251 = tested on: U-251
# SNB-19 = tested on: SNB-19
# COLO 205 = tested on: COLO 205
# HOP-92 = tested on: HOP-92
# DU-145 = tested on: DU-145
# KM12 = tested on: KM12
# HOP-62 = tested on: HOP-62
# UO-31 = tested on: UO-31
SMILES,GI50 (CAKI-1),GI50 (OVCAR-4),GI50 (ACHN),GI50 (MDA-N),GI50 (OVCAR-8),GI50 (786-0),GI50 (A498),GI50 (UACC-257),GI50 (RXF 393),GI50 (A549),GI50 (T47D),GI50 (NCI-H23),GI50 (U-251),GI50 (SNB-19),GI50 (COLO 205),GI50 (HOP-92),GI50 (DU-145),GI50 (KM12),GI50 (HOP-62),GI50 (UO-31)
CC(=O)c1cnc2oc3ccc(O)cc3c2c1-c1ccccc1,29.4 µM (inactive),15 µM (inactive),21.1 µM (inactive),40.1 µM (inactive),29.4 µM (inactive),39.4 µM (inactive),17.5 µM (inactive),65.2 µM (inactive),25.3 µM (inactive),47.1 µM (inactive),10.8 µM (inactive),46.1 µM (inactive),52.4 µM (inactive),37.3 µM (inactive),30.3 µM (inactive),18.3 µM (inactive),32.1 µM (inactive),–,–,–
CN(C)CCCNC(=O)CCNC(=O)c1cc(NC(=O)c2cc(NC(=O)c3cc(NC(=O)c4nccn4C)cn3C)cn2C)cn1C,> 100 µM (inactive),–,> 100 µM (inactive),> 100 µM (inactive),> 100 µM (inactive),> 100 µM (inactive),> 100 µM (inactive),> 100 µM (inactive),> 100 µM (inactive),> 100 µM (inactive),31 µM (inactive),> 100 µM (inactive),13.4 µM (inactive),29.6 µM (inactive),20 µM (inactive),> 100 µM (inactive),> 100 µM (inactive),> 100 µM (inactive),> 100 µM (inactive),> 100 µM (inactive)
CCOc1ccc(C(=O)/C=C2/Nc3ccccc3N/C2=C/C(=O)c2ccc(OCC)cc2)cc1,> 100 µM (inactive),72.3 µM (inactive),> 100 µM (inactive),> 100 µM (inactive),–,80 µM (inactive),> 100 µM (inactive),> 100 µM (inactive),> 100 µM (inactive),> 100 µM (inactive),> 100 µM (inactive),> 100 µM (inactive),> 100 µM (inactive),> 100 µM (inactive),> 100 µM (inactive),> 100 µM (inactive),> 100 µM (inactive),–,> 100 µM (inactive),> 100 µM (inactive)
Cc1cc(C)nc(NC(=S)Nc2ccc(Cl)cc2)c1,60.5 µM (inactive),18.4 µM (inactive),–,> 100 µM (inactive),20.1 µM (inactive),22.5 µM (inactive),48.3 µM (inactive),> 100 µM (inactive),36.1 µM (inactive),> 100 µM (inactive),> 100 µM (inactive),–,35.9 µM (inactive),> 100 µM (inactive),> 100 µM (inactive),–,> 100 µM (inactive),53.6 µM (inactive),35.9 µM (inactive),> 100 µM (inactive)
Cc1ccc(S(=O)(=O)N2CCSCCN(S(=O)(=O)c3ccc(C)cc3)CCN(S(=O)(=O)c3ccc(C)cc3)CC2)cc1,–,> 100 µM (inactive),–,> 100 µM (inactive),37.8 µM (inactive),16.7 µM (inactive),69.7 µM (inactive),–,27.9 µM (inactive),> 100 µM (inactive),8.75 µM (inactive),79.4 µM (inactive),20 µM (inactive),29.2 µM (inactive),> 100 µM (inactive),0.184 µM (active),> 100 µM (inactive),–,20.7 µM (inactive),92.7 µM (inactive)
CC1=C(c2ccccc2)NC(=S)C(C)C(c2ccccc2)=N1 (centres undefined),56.6 µM (inactive),17.2 µM (inactive),11.7 µM (inactive),16.9 µM (inactive),83.4 µM (inactive),74.5 µM (inactive),27.2 µM (inactive),28.8 µM (inactive),21.7 µM (inactive),40.1 µM (inactive),15.8 µM (inactive),9.91 µM (inactive),55.6 µM (inactive),> 100 µM (inactive),30.9 µM (inactive),–,40.4 µM (inactive),21.2 µM (inactive),> 100 µM (inactive),19.6 µM (inactive)
COC1CCC(=O)N1CN(C(C)=O)c1ccc(C)cc1 (centres undefined),> 100 µM (inactive),> 100 µM (inactive),> 100 µM (inactive),> 100 µM (inactive),> 100 µM (inactive),> 100 µM (inactive),> 10 µM (inactive),> 100 µM (inactive),> 100 µM (inactive),> 100 µM (inactive),> 100 µM (inactive),> 100 µM (inactive),> 100 µM (inactive),> 100 µM (inactive),> 100 µM (inactive),–,> 100 µM (inactive),> 100 µM (inactive),> 100 µM (inactive),> 100 µM (inactive)
C(#CP(c1ccccc1)c1ccccc1)P(C#CP(c1ccccc1)c1ccccc1)c1ccccc1,> 100 µM (inactive),> 100 µM (inactive),> 100 µM (inactive),> 100 µM (inactive),> 100 µM (inactive),> 100 µM (inactive),> 100 µM (inactive),> 100 µM (inactive),> 100 µM (inactive),> 100 µM (inactive),> 100 µM (inactive),–,> 100 µM (inactive),> 100 µM (inactive),> 100 µM (inactive),> 100 µM (inactive),> 100 µM (inactive),> 100 µM (inactive),> 100 µM (inactive),> 100 µM (inactive)
O=C1CCCCC(=O)OC2(CCCCC2=O)CC1 (centres undefined),> 100 µM (inactive),> 100 µM (inactive),> 100 µM (inactive),> 100 µM (inactive),> 100 µM (inactive),> 100 µM (inactive),> 100 µM (inactive),> 100 µM (inactive),> 100 µM (inactive),> 100 µM (inactive),> 100 µM (inactive),> 100 µM (inactive),> 100 µM (inactive),–,> 100 µM (inactive),> 100 µM (inactive),> 100 µM (inactive),> 100 µM (inactive),> 100 µM (inactive),> 100 µM (inactive)
Nc1ncnc2c1ccn2COC(CO)CO,> 100 µM (inactive),> 100 µM (inactive),> 100 µM (inactive),> 100 µM (inactive),> 100 µM (inactive),> 100 µM (inactive),> 100 µM (inactive),> 100 µM (inactive),49.4 µM (inactive),> 100 µM (inactive),> 100 µM (inactive),> 100 µM (inactive),> 100 µM (inactive),> 100 µM (inactive),–,> 100 µM (inactive),> 100 µM (inactive),> 100 µM (inactive),> 100 µM (inactive),> 100 µM (inactive)
O=C1Nc2ccc(Br)cc2/C1=N/NC(=S)Nc1ccc(F)cc1,2.12 µM (inactive),7.24 µM (inactive),3.43 µM (inactive),2.98 µM (inactive),4.25 µM (inactive),7.67 µM (inactive),2.26 µM (inactive),9.77 µM (inactive),1.76 µM (inactive),–,4.9 µM (inactive),0.794 µM (active),3.53 µM (inactive),–,4.02 µM (inactive),3.61 µM (inactive),4.3 µM (inactive),5.11 µM (inactive),8.07 µM (inactive),–
